According to patent publication US8912120B2, “Herbicidal compositions comprising 4-amino-3-chloro-5-fluoro-6-(4-chloro-2-fluoro-3-methoxyphenyl) pyridine-2-carboxylic acid or a derivative thereof and synthetic auxin herbicides” (Dow AgroSciences, LLC., priority 2012, dated 2014):

Columns and labels:
[1] = tested on: CYPES; assay: Example I: postemergence foliar-applied herbicidal mixtures, direct seeded rice, CYPES; assay type: in vivo, Cyperus esculentus (yellow nutsedge); details: 4.38 gae/ha
Method: The soil matrix was contained in plastic pots with a volume of 1 quart and a surface area of 83.6 square centimeters (cm^2). […] The plants were grown for 8-22 days in a greenhouse with an approximate 14 h photoperiod which was maintained at about 29° C. during the day and 26° C. during the night. Nutrients (Peters Excel® 15-5-15 5-Ca 2-Mg and iron chelate) were applied in the irrigation solution as needed and water was added on a regular basis. Supplemental lighting was provided with overhead metal halide 1000-Watt lamps as necessary. The plants were employed for testing when they reached the first through fourth true leaf stage.
Treatments consisted of the acid or esters of 4-amino-3-chloro-5-fluoro-6-(4-chloro-2-fluoro-3-methoxy-phenyl)pyridine-2-carboxylic acid (Compound A), each formulated as an SC (suspension concentrate), and various herbicidal components alone and in combination. Forms of compound A were applied on an acid equivalent basis.
For treatments comprised of formulated compounds, measured amounts of compounds were placed individually in 25 mL glass vials and diluted in a volume of 1.25% (v/v) Agri-Dex® crop oil concentrated to obtain 12× stock solutions. […] Application solutions were prepared by adding an appropriate amount of each stock solution (e.g., 1 mL) and diluted to the appropriate final concentrations with the addition of 10 mL of an aqueous mixture of 1.25% (v/v) crop oil concentrate so that the final spray solutions contained 1.25+/−0.05% (v/v) crop oil concentrate.
All stock solutions and applications solutions were visually inspected for compound compatibility prior to application. Spray solutions were applied to the plant material with an overhead Mandel track sprayer equipped with a 8002E nozzles calibrated to deliver 187 L/ha over an application area of 0.503 m^2 at a spray height of 18 to 20 inches (46 to 50 cm) above average plant canopy height. Control plants were sprayed in the same manner with the solvent blank.
The treated plants and control plants were placed in a greenhouse as described above and watered by sub-irrigation to prevent wash-off of the test compounds. After approximately 3 weeks, the condition of the test plants as compared with that of the untreated plants was determined visually and scored on a scale of 0 to 100 percent where 0 corresponds to no injury or growth inhibition and 100 corresponds to complete kill.
Colby's equation was used to determine the herbicidal effects expected from the mixtures (Colby, S. R. 1967. Calculation of the synergistic and antagonistic response of herbicide combinations. Weeds 15:20-22).
The following equation was used to calculate the expected activity of mixtures containing two active ingredients, A and B: Expected=A+B−(A×B/100) […]

[2] = tested on: TRFRE; assay: Example V: postemergence herbicidal activity of mixtures in forage crops, TRFRE; assay type: in vivo, Trifolium repens (white clover); details: alone, foliar, approximately 21 days
Method: Seeds or root cuttings of the desired test plant species were planted in Sun Gro MetroMix® 306 planting mixture, which typically has a pH of 6.0 to 6.8 and an organic matter content of about 30 percent, in plastic pots with a surface area of 126.6 square centimeters (cm^2). […] The plants were grown for 14-60 days in a greenhouse with an approximate 14 hour photoperiod which was maintained at approximately 28° C. during the day and 24° C. during the night.
Spray solutions of the second herbicide or experimental compound mixtures were prepared by adding the stock solutions to the appropriate amount of dilution solution to form 12 mL spray solution with active ingredients in two-way combinations.

Compound: COc1c(Cl)ccc(-c2nc(C(=O)O)c(Cl)c(N)c2F)c1F [Compound A Acid, 4-amino-3-chloro-6-(4-chloro-2-fluoro-3-methoxyphenyl)-5-fluoropyridine-2-carboxylic acid]
- Visual Weed Control (%) - 21 DAA CYPES Obs [1]: 18%

Compound: COc1c(Cl)ccc(-c2nc(C(=O)OCc3ccccc3)c(Cl)c(N)c2F)c1F [Compound A Benzyl Ester, benzyl ester of 4-amino-3-chloro-5-fluoro-6-(4-chloro-2-fluoro-3-methoxy-phenyl)pyridine-2-carboxylic acid]
- TRFRE Obs (observed value) ([2]; 4.4 gae/ha): 0%
- TRFRE Obs (observed value) ([2]; 8.8 gae/ha): 10%
- TRFRE Obs (observed value) ([2]; 17.5 gae/ha): 30%
